Laboratory results from patent publication US20230210867A1, “TREATMENT OF ADJUSTMENT DISORDERS” (VISTAGEN THERAPEUTICS, INC., priority 2020, published 2023).

Legend:
[1] = test system: Adjustment Disorder with Anxiety (AjDA) symptoms in adults; experiment: Phase 2A clinical trial of PH94B neuroactive nasal spray in Adjustment Disorder with Anxiety (AjDA); format: in vivo, human; conditions: adult subjects with AjDA, compared to placebo
From the text: A clinical trial is designed and conducted to evaluate the efficacy, safety and tolerability of daily administration of PH94B neuroactive nasal spray (Example 1) as a treatment of Adjustment Disorder with Anxiety (AjDA) symptoms in adults, associated with identifiable stressors related to the COVID-19 pandemic. Subject are confirmed with current diagnoses of this condition as defined in the Diagnostic and Statistical Manual of Mental Disorders, 5th Edition (DSM-5).
The PH94B study drug is delivered intranasally with the nozzle of the applicator positioned in the nasal vestibule and directed toward the midline (medial part or nasal septum). In order to administer study medication, the actuator (pusher) should be depressed.
Prior to the use of a new study medication bottle, the subject is instructed to shake the bottle five times and to prime the bottle by depressing the actuator five times. […]
1. Individual subject improvement as assessed by the Sheehan Disability Scale (SDS) at the end of week 4 of treatment with PH94B compared to placebo.
2. Individual subject improvement as assessed by the Clinical Global Impression-Improvement rating (CGI-I). […]
3. Individual subject improvement as assessed by the subject's self-assessment of improvement (PGI-C) at the end of week 4 of treatment with PH94B compared to placebo. […]

[2] = all clinical studies to date; cited from earlier work
[3] = test system: symptoms of social anxiety disorder (SAD); conditions: earlier clinical studies; cited from earlier work

For `C[C@@]12C=CC[C@H]1[C@@H]1CCC3=C[C@@H](O)CC[C@]3(C)[C@H]1CC2` [PH94B, [3β]-androsta-4,16-dien-3-ol], the “anxiety levels as measured by the Hamilton Anxiety Scale (HAM-A)” value ([1]; 3.2 μg intranasal four times per day, four weeks) is listed as “statistically significant reduction in anxiety levels”, the “secondary endpoints (SDS, CGI-I, PGI-C, ADNM)” value ([1]; end of week 4 of treatment) is listed as “statistically significant improvement” and the “safety in clinical studies” value [2] is listed as “safe”. For the same compound, the “efficacy in treating symptoms of social anxiety disorder (SAD)” value [3] was “significant efficacy”.
